# According to patent US20250352555A1, “METHOD OF INCREASING IMMUNE CELL ACTIVATION AND/OR TREATING CANCER USING DIBENZOXAZEPINONES” (VASCULAR THERAPEUTICS PTY LTD, priority 2022, published 2025):
# Columns and labels:
# MeWo cells = assay: Invasion assay (Matrigel), MeWo; format: cell-based, human; settings: 1 μM, 48 h, with greater potency than SCH772984
# Experimental: Invasion assays. Cells were grown in medium containing 10% FBS in 24-well plates. The following day the cells were scratched with a sterile toothpick, washed with PBS, and overlayed with 90% Matrigel (cat. no. 354230, Corning) (200 μl/well) containing vehicle, BT2 or SCH772984 at 1 μM. The cells were immediately photographed under a 10× objective using an Olympus CKX41 microscope, incubated at 37° C. for 1 h, and medium (800 μl/well) containing 10% FBS with vehicle, BT2 or SCH772984 at 1 μM was added. After 24 or 48 h, the cells were again photographed under a 10× objective using the same microscope. To assess the effect of BT2 on melanoma cell migration, A375 and MeWo cells were incubated with 1 μM of BT2 or SCH772984, and A375 and MeWo migration into the denuded zone was quantified after 24 or 48 h, respectively.
# B16F10 melanoma = assay: Melanoma growth in C57BL/6J mice bearing s.c. B16F10 tumors; format: in vivo, mouse
# Experimental: Melanoma growth studies in mice. Six-to-eight week old C57BL/6J mice (sourced from Australian Resource Centre, Perth) were inoculated subcutaneously (s.c.) with B16F10 cells (1×10^5 cells/mouse in 100 μl DMEM containing 10% FBS with 50% Matrigel). InVivoPlus anti-mouse PD-1 (CD279) (BioXCell, BP0033-2) or InVivoPlus polyclonal Armenian hamster IgG (Bio X Cell, BP0091) was administered intraperitoneally (i.p.) (100 μg) twice a week. Treatment commenced on Day 7.
# Alternatively, BT2 was suspended at 10 mg/ml in vehicle (saline containing 0.5% (v/v) Tween 80 and 0.01% (v/v) DMSO) and sonicated prior to administration. Vehicle or BT2 was administered i.p. (20 ml/kg and 200 mg/kg, respectively) once a day on a 5 days-on/2 days-off schedule. Treatment commenced when tumors were palpable on Day 5.
# Tumors were measured by length and width in mm twice per week for MDA-MB-435 in SCID mice and by length, width and height in mm once per day for B16F10 in C57BL/6J mice. Tumor volumes were calculated using formula V=(L×W×H×π)/6 (B16F10) or V=L×W×W/2 (MDA-MB-435). If a second tumor was detected in an animal, both tumor volumes were measured and their volumes combined. Animal protocols were approved by the Explora Biolabs' Institutional Animal Care and Use Committee (IACUC) and the UNSW Animal Care and Ethics Committee.
# The preceding xenograft studies showing anti-tumor effects in immunocompromised mice when BT2 is delivered intratumorally (i.t.) but not systemically (i.p.) led the inventors to hypothesize that BT2 could rely upon an active immune system in order to effect tumor growth inhibition. Therefore, the effect of BT2 was tested in an immunocompetent mouse model of melanoma growth using B16F10 melanoma. […]
# To assess the effect of BT2 in the same model, C57BL/6J mice bearing s.c. B16F10 tumors were administered with BT2 or vehicle (200 mg/kg or 20 ml/kg, respectively, i.p.) once a day on a 5 days-on/2 days-off schedule. […] Tumor size on Day 17 measured using callipers (FIG. 10A) correlated with isolated weighed tumors (FIG. 10B).
# CD68 = assay: Immunohistochemistry of B16F10 tumors (Day 17), CD68; format: in vivo, mouse; settings: B16F10 tumors Day 17, 200 mg/kg i.p.
# Description: Immunohistochemical staining and analyses. Rabbit monoclonal anti-CD3 (cat. no. ab16669; mouse, rat and human reactive), rabbit monoclonal anti-PD-1 (cat. no. ab214421), rabbit monoclonal anti-CD68 (cat. no. ab125212) antibodies were obtained from Abcam, rabbit monoclonal anti-phospho-ERK (Thr^202/Tyr^204) (cat. no. CST4370), rabbit monoclonal total ERK (cat. no. CST4695), antibodies were obtained from Cell Signaling Technology. Rabbit polyclonal anti-PD-L1 (cat. no. PA5-20343) antibody was obtained from ThermoFisher.
# Formalin fixed, paraffin embedded sections were prepared from tumors. Heat-induced epitope retrieval was applied to all deparaffinized sections (4 μm sections on Superfrost slides) with citrate buffer, pH 6.0 for 5 min at 110° C. Sections were blocked with Dual Endogenous Enzyme Block (DAKO, S2003) for 10 min and then with 2% skim milk for 20 min. […] Integrated optical density (IOD) or area of positive staining (red chromagen) was assessed using Image-Pro Plus software (Cybernetics, Bethesda, MD, USA). Positive staining was the average of quantitation in 4-8 fields of view under 20× or 40× objectives.
# Immunohistochemical analysis was performed on B16F10 tumors (Day 17) from BT2- or vehicle-treated mice with antibodies to CD68. IOD and tissue area were assessed using Image-Pro Plus and the IOD/μm^2 was determined.
smiles,measurement,setting,value
"CCOC(=O)Nc1ccc2c(c1)C(=O)N(CC)c1ccccc1O2 [BT2, (10-ethyl-11-oxo-10,11-dihydro-dibenzo[b,f][1,4]oxazepin-2-yl)-carbamic acid ethyl ester]",invasion into the denuded zone of Matrigel,MeWo cells,suppressed
same,B16F10 tumor growth (volume),"B16F10 melanoma; C57BL/6J mice, 200 mg/kg i.p. once a day, 5 days-on/2 days-off, from Day 5",significant B16F10 growth inhibition from Day 9
same,body weight,"B16F10 melanoma; C57BL/6J mice, B16F10, 200 mg/kg i.p. once a day, 5 days-on/2 days-off",no adverse effect on body weight
same,mice with tumor size exceeding 500 mm^3 (Kaplan-Meier analysis),"B16F10 melanoma; Day 17, 200 mg/kg i.p., vehicle 75%",none
same,CD68 levels in the tumors (IHC),CD68,reduced levels of CD68
